Biological target: human APJ receptor (Homo sapiens (Human), UniProt P35414)
Experiment: Intracellular cAMP accumulation assay (APJ hcAMP, HTRF)
Format: cell-based
Details: HEK293 cells stably expressing human APJ receptor; inhibition of forskolin-mediated cAMP production; read-out: hAPJ cAMP EC50 Potency range
Method: Intracellular cAMP Accumulation Assay
HEK293 cells stably expressing human APJ receptor were used to assess the activity of compounds. Cultured cells were detached and resuspended in the cAMP Homogeneous Time-Resolved Fluorescence (HTRF) assay buffer (Cisbio cat; #62AM4PEJ). The assay was performed in 384-well assay plates (Perkin-Elmer; cat #6008289) according to assay protocol provided by the manufacturer. Serial dilutions of a compound together with assay buffer containing […] and 2 μM forskolin were added to each well containing 5,000 cells and incubated for 30 minutes at room temperature. Subsequently, cAMP D2 reagent was added in the lysis buffer followed by the EuK antibody (Cisbio; cat #62AM4PEJ) and incubated for 60 min. The fluorescence emission ratio was measured using fluorometer. The intracellular cAMP concentrations (compound-stimulated inhibition of forskolin-mediated cAMP production) were calculated by extrapolation from a standard curve using known cAMP concentrations. The EC50 values were obtained by fitting the data to a sigmoidal concentration-response curve with variable slope.

Sequence of human APJ receptor (P35414 whole entry): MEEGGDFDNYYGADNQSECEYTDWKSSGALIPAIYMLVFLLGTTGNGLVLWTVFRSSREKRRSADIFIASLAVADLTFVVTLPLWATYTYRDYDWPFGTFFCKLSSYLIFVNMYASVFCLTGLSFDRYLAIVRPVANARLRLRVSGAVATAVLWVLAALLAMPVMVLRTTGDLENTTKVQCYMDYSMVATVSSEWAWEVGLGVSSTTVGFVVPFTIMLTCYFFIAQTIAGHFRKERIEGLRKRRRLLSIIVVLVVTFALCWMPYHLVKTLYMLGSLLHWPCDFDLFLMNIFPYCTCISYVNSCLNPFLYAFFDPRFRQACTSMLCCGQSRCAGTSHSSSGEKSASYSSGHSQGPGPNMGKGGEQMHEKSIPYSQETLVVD

Compound | EC50 [nM]
CCCCc1nc(O)c(-c2nnc(CCc3ncc(-c4ccccc4)o3)o2)c(O)c1-c1c(OC)cccc1OC [Example 28, 6-butyl-5-(2,6-dimethoxyphenyl)-3-{5-[2-(5-phenyl-1,3-oxazol-2-yl)ethyl]-1,3,4-oxadiazol-2-yl}pyridine-2,4-diol] | 10 to 100
CCCCc1nc(O)c(-c2nnc(CCc3nccn3C)o2)c(O)c1-c1c(OC)cccc1OC [Example 29, 6-butyl-5-(2,6-dimethoxyphenyl)-3-{5-[2-(1-methyl-1H-imidazol-2-yl)ethyl]-1,3,4-oxadiazol-2-yl}pyridine-2,4-diol] | 0.01 to 10
CCCCc1nc(O)c(-c2nnc(Cc3ccc(Cl)nc3)o2)c(O)c1-c1c(OC)cccc1OC [Example 30, 6-butyl-3-{5-[(6-chloropyridin-3-yl)methyl]-1,3,4-oxadiazol-2-yl}-5-(2,6-dimethoxyphenyl) pyridine-2,4-diol] | 0.01 to 10
CCCCc1nc(O)c(-c2nnc(C(C)(C)c3ccc(Cl)cc3)o2)c(O)c1-c1c(OC)cccc1OC [Example 31, 6-butyl-3-{5-[2-(4-chlorophenyl)propan-2-yl]-1,3,4-oxadiazol-2-yl}-5-(2,6-dimethoxyphenyl) pyridine-2,4-diol] | 0.01 to 10
CCCCc1nc(O)c(-c2nnc(Cc3ccc(F)cc3)o2)c(O)c1-c1c(OC)cccc1OC [Example 32, 6-butyl-5-(2,6-dimethoxyphenyl)-3-{5-[(4-fluorophenyl)methyl]-1,3,4-oxadiazol-2-yl}pyridine-2,4-diol] | 0.01 to 10
CCCCc1nc(O)c(-c2nnc(Cc3ccc(Cl)c(Cl)c3)o2)c(O)c1-c1c(OC)cccc1OC [Example 33, 6-butyl-3-{5-[(3,4-dichlorophenyl)methyl]-1,3,4-oxadiazol-2-yl}-5-(2,6-dimethoxyphenyl) pyridine-2,4-diol] | 0.01 to 10
CCCCc1nc(O)c(-c2nnc(Cc3ccc(F)c(C(F)(F)F)c3)o2)c(O)c1-c1c(OC)cccc1OC [Example 34, 6-butyl-5-(2,6-dimethoxyphenyl)-3-(5-{[4-fluoro-3-(trifluoromethyl)phenyl]methyl}-1,3,4-oxadiazol-2-yl)pyridine-2,4-diol] | 10 to 100
CCCCc1nc(O)c(-c2nnc(Cc3ccc(Cl)cc3Cl)o2)c(O)c1-c1c(OC)cccc1OC [Example 35, 6-butyl-3-{5-[(2,4-dichlorophenyl)methyl]-1,3,4-oxadiazol-2-yl}-5-(2,6-dimethoxyphenyl) pyridine-2,4-diol] | 0.01 to 10
CCCCc1nc(O)c(-c2nnc(Cc3c(C)n[nH]c3C)o2)c(O)c1-c1c(OC)cccc1OC [Example 36, 6-butyl-5-(2,6-dimethoxyphenyl)-3-{5-[(3,5-dimethyl-1H-pyrazol-4-yl)methyl]-1,3,4-oxadiazol-2-yl}pyridine-2,4-diol] | 10 to 100
CCCCc1nc(O)c(-c2nnc(Cc3ccc(C#N)cc3)o2)c(O)c1-c1c(OC)cccc1OC [Example 37, 4-({5-[6-butyl-5-(2,6-dimethoxyphenyl)-2,4-dihydroxypyridin-3-yl]-1,3,4-oxadiazol-2-yl}methyl) benzonitrile] | 0.01 to 10
CCCCc1nc(O)c(-c2nnc(Cc3ccc(F)c(F)c3)o2)c(O)c1-c1c(OC)cccc1OC [Example 38, 6-butyl-3-{5-[(3,4-difluorophenyl)methyl]-1,3,4-oxadiazol-2-yl}-5-(2,6-dimethoxyphenyl) pyridine-2,4-diol] | 0.01 to 10
CCCCc1nc(O)c(-c2nnc(Cc3csc(-c4ccc(Cl)cc4)n3)o2)c(O)c1-c1c(OC)cccc1OC [Example 39, 6-butyl-3-(5-{[2-(4-chlorophenyl)-1,3-thiazol-4-yl]methyl}-1,3,4-oxadiazol-2-yl)-5-(2,6-dimethoxyphenyl) pyridine-2,4-diol] | 10 to 100
CCCCc1nc(O)c(-c2nnc(C(C)c3ccc(Cl)cc3)o2)c(O)c1-c1c(OC)cccc1OC (stereo not shown) [Example 40, 6-butyl-3-{5-[1-(4-chlorophenyl)ethyl]-1,3,4-oxadiazol-2-yl}-5-(2,6-dimethoxyphenyl) pyridine-2,4-diol] | 0.01 to 10
CCCCc1nc(O)c(-c2nnc(Cc3nonc3C)o2)c(O)c1-c1c(OC)cccc1OC [Example 41, 6-butyl-5-(2,6-dimethoxyphenyl)-3-{5-[(4-methyl-1,2,5-oxadiazol-3-yl)methyl]-1,3,4-oxadiazol-2-yl}pyridine-2,4-diol] | 0.01 to 10
CCCCc1nc(O)c(-c2nnc(COc3ccc(F)cc3)o2)c(O)c1-c1c(OC)cccc1OC [Example 42, 6-butyl-5-(2,6-dimethoxyphenyl)-3-[5-(4-fluoro-phenoxymethyl)-1,3,4-oxadiazol-2-yl]pyridine-2,4-diol] | 10 to 100
CCCCc1nc(O)c(-c2nnc(Cc3n[nH]c4ccccc34)o2)c(O)c1-c1c(OC)cccc1OC [Example 43, 6-butyl-5-(2,6-dimethoxyphenyl)-3-[5-(1H-indazol-3-ylmethyl)-1,3,4-oxadiazol-2-yl]pyridine-2,4-diol] | 0.01 to 10

Compound | EC50 [nM]
CCCCc1nc(O)c(-c2nnc(Cc3n[nH]c(=O)c4ccccc34)o2)c(O)c1-c1c(OC)cccc1OC [Example 44, 4-({5-[6-butyl-5-(2,6-dimethoxyphenyl)-2,4-dihydroxypyridin-3-yl]-1,3,4-oxadiazol-2-yl}methyl)-1,2-dihydrophthalazin-1-one] | 10 to 100
CCCCc1nc(O)c(-c2nnc(C(OC)c3ccccc3)o2)c(O)c1-c1c(OC)cccc1OC (stereo not shown) [Example 45, 6-butyl-5-(2,6-dimethoxyphenyl)-3-{5-[methoxy(phenyl)methyl]-1,3,4-oxadiazol-2-yl}pyridine-2,4-diol] | 10 to 100
CCCCc1nc(O)c(-c2nnc(Cc3csc(-c4ccccc4)n3)o2)c(O)c1-c1c(OC)cccc1OC [Example 46, 6-butyl-5-(2,6-dimethoxyphenyl)-3-{5-[(2-phenyl-1,3-thiazol-4-yl)methyl]-1,3,4-oxadiazol-2-yl}pyridine-2,4-diol] | 0.01 to 10
CCCCc1nc(O)c(-c2nnc(CCc3nc4ccccc4o3)o2)c(O)c1-c1c(OC)cccc1OC [Example 47, 3-{5-[2-(1,3-benzoxazol-2-yl)ethyl]-1,3,4-oxadiazol-2-yl}-6-butyl-5-(2,6-dimethoxyphenyl) pyridine-2,4-diol] | 0.01 to 10
CCCCc1nc(O)c(-c2nnc(Cc3ccc(F)c(OC)c3)o2)c(O)c1-c1c(OC)cccc1OC [Example 48, 6-butyl-5-(2,6-dimethoxyphenyl)-3-{5-[(4-fluoro-3-methoxyphenyl)methyl]-1,3,4-oxadiazol-2-yl}pyridine-2,4-diol] | 0.01 to 10
CCCCc1nc(O)c(-c2nnc(Cc3cncs3)o2)c(O)c1-c1c(OC)cccc1OC [Example 49] | 100 to 300
CCCCc1nc(O)c(-c2nnc(COc3ccc(Cl)c(Cl)c3)o2)c(O)c1-c1c(OC)cccc1OC [Example 50, 6-butyl-3-[5-(3,4-dichlorophenoxy-methyl)-1,3,4-oxadiazol-2-yl]-5-(2,6-dimethoxyphenyl) pyridine-2,4-diol] | 10 to 100
CCCCc1nc(O)c(-c2nnc(Cc3cc(C)no3)o2)c(O)c1-c1c(OC)cccc1OC [Example 51, 6-butyl-5-(2,6-dimethoxyphenyl)-3-{5-[(3-methyl-1,2-oxazol-5-yl)methyl]-1,3,4-oxadiazol-2-yl}pyridine-2,4-diol] | 0.01 to 10
CCCCc1nc(O)c(-c2nnc(CCc3nc(-c4cnccn4)no3)o2)c(O)c1-c1c(OC)cccc1OC [Example 52, 6-butyl-5-(2,6-dimethoxyphenyl)-3-(5-{2-[3-(pyrazin-2-yl)-1,2,4-oxadiazol-5-yl]ethyl}-1,3,4-oxadiazol-2-yl)pyridine-2,4-diol] | 0.01 to 10
CCCCc1nc(O)c(-c2nnc(COc3ccc(Cl)cc3)o2)c(O)c1-c1c(OC)cccc1OC [Example 53, 6-butyl-3-[5-(4-chlorophenoxy-methyl)-1,3,4-oxadiazol-2-yl]-5-(2,6-dimethoxyphenyl) pyridine-2,4-diol] | 10 to 100
CCCCc1nc(O)c(-c2nnc(CC(C)(C)c3ccc(Cl)cc3)o2)c(O)c1-c1c(OC)cccc1OC [Example 54, 6-butyl-3-{5-[2-(4-chlorophenyl)-2-methylpropyl]-1,3,4-oxadiazol-2-yl}-5-(2,6-dimethoxyphenyl) pyridine-2,4-diol] | 0.01 to 10
CCCCc1nc(O)c(-c2nnc(Cc3nc(-c4ccccn4)no3)o2)c(O)c1-c1c(OC)cccc1OC [Example 55, 6-butyl-5-(2,6-dimethoxyphenyl)-3-(5-{[3-(pyridin-2-yl)-1,2,4-oxadiazol-5-yl]methyl}-1,3,4-oxadiazol-2-yl)pyridine-2,4-diol] | 0.01 to 10
CCCCc1nc(O)c(-c2nnc(Cc3ccc(OC(F)(F)F)cc3)o2)c(O)c1-c1c(OC)cccc1OC [Example 56, 6-butyl-5-(2,6-dimethoxyphenyl)-3-(5-{[4-(trifluoromethoxy)phenyl]methyl}-1,3,4-oxadiazol-2-yl)pyridine-2,4-diol] | 0.01 to 10
CCCCc1nc(O)c(-c2nnc(Cc3cc(F)cc(C(F)(F)F)c3)o2)c(O)c1-c1c(OC)cccc1OC [Example 57, 6-butyl-5-(2,6-dimethoxyphenyl)-3-(5-{[3-fluoro-5-(trifluoromethyl)phenyl]methyl}-1,3,4-oxadiazol-2-yl)pyridine-2,4-diol] | 10 to 100
CCCCc1nc(O)c(-c2nnc(CCc3nc4ccccc4n3C)o2)c(O)c1-c1c(OC)cccc1OC [Example 58, 6-butyl-5-(2,6-dimethoxyphenyl)-3-{5-[2-(1-methyl-1H-1,3-benzodiazol-2-yl)ethyl]-1,3,4-oxadiazol-2-yl}pyridine-2,4-diol] | 0.01 to 10

— patent US10336739B2, “4-hydroxy-3-(heteroaryl)pyridine-2-one APJ agonists” (BRISTOL-MYERS SQUIBB COMPANY, priority 2015, dated 2019)
